Assay results: patent US20160166648A1, “Treatment of Multiple Sclerosis With Combination of Laquinimod and Interferon-Beta” (Teva Pharmaceutical Industries, Ltd., priority 2011, published 2016)
Where “and” joins values, the source holds several entries; their conditions need not be identical. Equal values may be shown once. Read-outs that look alike come from different tables or passages of the source.

Experiments:
[1] = system: MOG induced EAE in C57 BI mice; test: Interferon-β s.c. daily alone or in combination with laquinimod in chronic MOG induced EAE; type: in vivo, C57BL/6 mice; details: for Activity compared to Laquinimod: Table 6
[2] = system: Multiple Sclerosis; details: two phase III trials; cited from earlier work
[3] = in vivo; cited from earlier work
[4] = Laquinimod 10 mg/kg oral QD, compared to vehicle
[5] = Laquinimod 25 mg/kg oral QD, compared to laquinimod (10 mg/kg)
[6] = Laquinimod 25 mg/kg oral QD, compared to vehicle

Structure (SMILES): CCN(C(=O)c1c(O)c2c(Cl)cccc2n(C)c1=O)c1ccccc1 [Laquinimod]
- Mean Onset [1]: 21.4 ± 8.2 days
- GMS value (group mean score) ([1]; Laquinimod 10 mg/kg oral QD): 0.8 ± 0.8 and 0.8
- Incidence ([1]; Laquinimod 10 mg/kg oral QD): 8/13
- MMS value (mean maximal score) ([1]; Laquinimod 10 mg/kg oral QD): 1.8 ± 1.7
- Mean Duration ([1]; Laquinimod 10 mg/kg oral QD): 9.2 ± 8.3 days
- Mean Onset ([1]; Laquinimod 10 mg/kg oral QD): 21.3 ± 8.2 days
- Mortality ([1]; Laquinimod 10 mg/kg oral QD): 0/13
- % inhibition 1 (incidence) [1, 4]: 38.5%
- % inhibition 2 (MMS) [1, 4]: 43.8%
- % inhibition 3 (GMS); Activity [1, 4]: 60%
- % inhibition 3 (GMS); Activity ([1]; Laquinimod 10 mg/kg oral QD, compared to vehicle, listed as laquinimod): 60%
- GMS value (group mean score) ([1]; Laquinimod 10 mg/kg oral QD, listed as Laquinmod): 0.8 ± 0.8
- Activity compared to Laquinimod ([1]; Laquinimod 10 mg/kg): 60%
- GMS value (group mean score) ([1]; Laquinimod 25 mg/kg oral QD): 0.3
- Incidence ([1]; Laquinimod 25 mg/kg oral QD): 5/15
- MMS value (mean maximal score) ([1]; Laquinimod 25 mg/kg oral QD): 0.8 ± 1.3
- Mean Duration ([1]; Laquinimod 25 mg/kg oral QD): 5.0 ± 7.4 days
- Mean Onset ([1]; Laquinimod 25 mg/kg oral QD): 25.7 ± 7.8 days
- Mortality ([1]; Laquinimod 25 mg/kg oral QD): 0/15
- % inhibition 1 (incidence) [1, 5]: 37.5%
- % inhibition 2 (MMS) [1, 5]: 55.5%
- % inhibition 3 (GMS) [1, 5]: 62.5%
- % inhibition 1 (incidence) [1, 6]: 61.5%
- % inhibition 2 (MMS) [1, 6]: 75.0%
- % inhibition 3 (GMS); Activity [1, 6]: 85%
- % inhibition 3 (GMS); Activity ([1]; Laquinimod 25 mg/kg oral QD, compared to vehicle, listed as Laquiniomd): 85.0%
- GMS value (group mean score) ([1]; Laquinimod 25 mg/kg oral QD, listed as Laquiniomd): 0.3 ± 0.5
- GMS value (group mean score) ([1]; Laquinimod 25 mg/kg oral QD, listed as Laquinmod): 0.3 ± 0.5
- Activity compared to Laquinimod ([1]; Laquinimod 25 mg/kg): 85%
- Activity compared to interferon-β (500,000 IU/mouse) ([1]; Laquinimod 25 mg/kg, according to GMS): 66.7%^
- Safety and tolerability profile [2]: favorable
- Oral bioavailability [3]: high
